According to PMC13289212, “HIVIL: A human in vitro inflammatory liver model recapitulates immune-associated drug effects with high predictivity” (NAM journal, 2025):
Read-outs that look alike come from different tables or passages of the source.

Assays:
IL-6 [1] = test: IL-6 ELISA in HIVIL (iKCs co-cultured with iHeps, LPS, 48 hr); type: cell-based, human; conditions: HIVIL; for IL-6 response: result in words
Text: (§1) Human iPSC cell line iPS (IMR90)-4 was purchased from WiCell Research Institute (Madison, WI), and maintained with a feeder-free method according to the instruction from […] Technologies (Vancouver, BC, Canada). The protocol of differentiation towards iKCs and iHeps as described previously with slight modification ([Tasnim et al., 2019]; [Cai et al., 2012]), respectively. […] More details are provided in Supplementary Methods. After differentiation, iKCs was harvested using 0.05 % trypsin-EDTA (Gibco, Waltham, Massachusetts, USA), while iHeps were dissociated with TrypLE^TM (Gibco). iHep suspension was further filtered through a 40 µm cell strainer to remove extracellular matrix clumps. Cell suspension was centrifuged at 1000 rpm for 5 min. For co-culture set up, tissue culture plates were coated with Rat tail collagen I (Gibco) diluted 100-fold in 0.02 N acetic acid, and incubated at 37 °C for 1 h and washed 3 times with PBS. According to the protocol optimized by [Tasnim et al. (2019)], iKCs was firstly seeded at a density of 14,000 per well on 96-well plate with Advanced DMEM (plus supplements) containing 5 % FBS. On the following day, iHeps were added at a density of 35,000 per well in Williams’ Medium E (plus supplements) (iHep: iKCs ratio = 2.5: 1). This reflects the physiological ratio of these cells in vivo under inflammatory conditions ([Tasnim et al., 2021]). Fresh media containing drugs was applied to co-cultures the next day. 50,000 cells were seeded to establish iHeps monoculture. THP-1 cells were kindly obtained from Dr. Eliza Fong and cultured as described by [Zeng et al. (2015)]. Details provided in Supplementary Methods.
(§2) Stock solutions of drugs were prepared in dimethyl sulfoxide (DMSO) and dissolved in medium prior to use. […] For these two drugs, the highest DMSO concentration was 1 %. Supernatant was collected at 48 hr for measurement of cytokines, and remaining cells were subjected to viability assay prior to lysis for RNA extraction.
(§3) Enzyme-linked immunosorbent assay (ELISA) for measurement of cytokines: Interleukin-6 (IL-6), interleukin-10 (IL-10) and tumor necrosis factor alpha (TNFα) levels in the media were measured using the corresponding human-based ELISA kits (Abcam, Cambridge, United Kingdom) according to manufacturer’s instructions. The cytokine production from dosed cells was normalized with the viability value from the same well. The normalized cytokine level upon drug treatments was further presented as percentage of DMSO+LPS. […] This normalization approach has been used in previous studies (Rose et al. 2016).

TNFα [2] = test: TNFα ELISA in HIVIL (iKCs co-cultured with iHeps, LPS, 48 hr); type: cell-based, human
Text: as §1, §2, §3

[3] = system: HIVIL (iKCs co-cultured with iHeps); test: AlamarBlue cell viability in HIVIL
Experimental: as §2

IL-6 [4] = test: IL-6 production of iKC mono-culture; type: cell-based, human; conditions: result in words
Experimental: (§4) Enzyme-linked immunosorbent assay (ELISA) for measurement of cytokines: Interleukin-6 (IL-6), interleukin-10 (IL-10) and tumor necrosis factor alpha (TNFα) levels in the media were measured using the corresponding human-based ELISA kits (Abcam, Cambridge, United Kingdom) according to manufacturer’s instructions. The cytokine production from dosed cells was normalized with the viability value from the same well. The normalized cytokine level upon drug treatments was further presented as percentage of DMSO+LPS. Normalization to viability per well ensures that any changes in cytokines are not due to changes in cell numbers upon drug treatment and normalization to DMSO+LPS allows better comparison between different batches of experiments. This normalization approach has been used in previous studies (Rose et al. 2016).

[5] = Cammett et al. 2009, Mendes et al. 2014, cited from earlier work
TNFα [6] = conditions: ref Shaw et al. 2010; Zou et al. 2009; Bekker et al. 2012; Gandhi et al. 2013; Heidari et al. 2019; cited from earlier work
[7] = FDA-labeling information; ref Chen et al. 2016; cited from earlier work
[8] = binary classification by human hepatotoxicity; ref Thakkar et al. 2020; cited from earlier work
iKCs mono-culture = test: Cell viability of iKCs mono-culture; set-up: dose or concentration left out as unconfirmed
Experimental: (§5) Cell viability assays: Cell viability was examined with AlamarBlue^TM cell viability assay (Thermo Fisher Scientific Inc.) according to manufacturer’s instructions. Briefly, cells were exposed to AlamarBlue^TM working solution, which was diluted 10-fold using PBS containing 2 mg/mL of glucose, for 1 hour. Color change in the solution was measured using fluorescence (Ex: 530nm, Em: 590nm) in Tecan Microplate Reader M1000 PRO. The viability of dosed cells was presented as percentage of the corresponding vehicle control.

iHeps = test: RNA-Seq of iHeps from mono-culture and HIVIL; type: cell-based, human; conditions: regardless of culture conditions, result in words
Text: Subsequent analyses compared gene fold-changes of treated samples against their respective vehicle controls: "m" and "c" indicate mono- and co-culture, and "–" and "+" represent the absence or presence of LPS. […] However, this is only applicable for co-cultures where downstream effects can be traced back to cytokine changes, and not in monocultures where significant upstream cytokine changes are not observed.
RNA extraction was done using TRIzol and analyzed on a Tapestation 4200 to determine RNA Integrity Number (RIN). Only samples with RIN > 8 were sequenced. Illumina Stranded mRNA multiplexing was done with unique 96 dual indices, and all samples sequenced on the same lane of NovaSeq 6000 S4 flowcell. Data normalization was performed using DESeq2 v1.32.0 ([Love et al., 2014]) on the R programming language v4.1.0 ([R Core Team, 2021]; [R Team, 2021]). Gene enrichment analysis was done with fgsea v1.18 ([Korotkevich et al., 2021]) with gene sets downloaded from MSigDB and KEGG pathway visualization done via pathview v1.32 ([Kanehisa et al., 2021]; [Luo and Brouwer, 2013]). Other plots were produced using ggplot2 v3.3.5 and scatterplot3d v0.3-41 ([Ligges and Maechler, 2003]). The RNA-Seq dataset has been deposited in NCBI under accession number GSE189320.
RNA seq and analysis: After 48 hr of drug treatment, iHeps cultured in mono-culture and HIVIL were both subjected to TrypLE^TM dissociation, and subsequently sorted with magnetic separation with the CD163 Microbead kit (Miltenyi Biotec, Bergisch Gladbach, Germany) to obtain only iHeps. Flow-through was collected, pelleted down and snap-frozen in liquid nitrogen, before storage at -80°C. Lysates were sent to the Genome Research Informatics and Data Science platform (Agency for Science, Technology and Research, Singapore). RNA extraction was done using TRIzol and analyzed on a Tapestation 4200 to determine RNA Integrity Number (RIN). All sequenced samples included for further analysis had RIN > 8. Illumina Stranded mRNA multiplexing was done with unique 96 dual indices, and all samples sequenced on the same lane of NovaSeq 6000 S4 flowcell. Sequenced reads were trimmed for adaptor sequence using Trim Galore v0.6.4, then aligned to human genome build GRCh38 using STAR_2.6.1d. Aligned reads are summarized into count matrices using featureCounts v1.6.4 with the gene annotation file from GENCODE v37.
Data normalization was performed using DESeq2 v1.32.0 (Love et al. 2014) on the R programming language v4.1.0 (Core Team 2021; Team 2021). Gene enrichment analysis was done with fgsea v1.18 (Korotkevich et al. 2021) with gene sets downloaded from MSigDB and KEGG pathway visualization done via pathview v1.32 (Kanehisa et al. 2021; Luo and Brouwer 2013). Other plots were produced using ggplot2 v3.3.5 and scatterplot3d v0.3-41 (Ligges and Maechler 2003). The RNA-Seq dataset has been deposited in NCBI under accession number GSE189320.

IL-6 [9] = test: IL-6 ELISA in iPSC(F4)-derived HIVIL; type: cell-based, human; conditions: result in words
Experimental: as §4

iPSC(F4)-derived HIVIL = test: Cell viability in iPSC(F4)-derived HIVIL; type: cell-based, human; conditions: result in words
Experimental: as §5

NF-κB = system: NF-κB; set-up: method as in Wahl et al. 1998; conditions: ref Wahl et al. 1998; cited from earlier work
IL-6 [10] = system: IL-6; set-up: method as in ref Hassan et al. 2016; Giustarini et al. 2019; Higuchi et al. 2012; Dik et al. 2018; conditions: ref Hassan et al. 2016; Giustarini et al. 2019; Higuchi et al. 2012; Dik et al. 2018; cited from earlier work
[11] = ref in each cell: Ademisoye et al. 2018, Xu et al. 2008, Agabeyoglu and Incecayir 2009, Rojanasthien et al. 2007, Reunanen et al. 1992, Li et al. 2002, Hong-mei et al. 2013, Bareggi et al. 1987, Jiang et al. 2008

**Q.** Which “group by drug-dependent IL-6 production” value (IL-6 [1]) does the source give for CN(C)CCCN1c2ccccc2Sc2ccc(Cl)cc21 [CPZ, Chlorpromazine] here?
**A.** dose-dependent inhibition

**Q.** What about the IC50 (IL-6 [1]; Homo sapiens, LPS, 48 hr) of the same molecule?
**A.** 12.9 µM

**Q.** And the “dose at which TNFα induction was observed” value (TNFα [2])?
**A.** 25 µM

**Q.** And the IC50 ([3]; Homo sapiens, 48 h, read-out: IC50: viability)?
**A.** 34.4 µM

**Q.** What about the “IL-6 / cytokine production in iKC mono-culture” value (IL-6 [4]) of the same molecule?
**A.** higher than that in the HIVIL model

**Q.** What about the Cmax [5, 11] of the same molecule?
**A.** 800 nM

**Q.** And the Cmax ([5]; ref in each cell: Xu et al. 2008)?
**A.** 800 nM

**Q.** What about the “Reported in-vivo (murine) responses: TNFα” value (TNFα [6]) of the same molecule?
**A.** TNFα↑ (Gandhi et al. 2013)

**Q.** And the DILIrank [7]?
**A.** less

**Q.** What about the DILIst [8] of the same molecule?
**A.** 1

**Q.** What about the “decrease in viability in iKCs” value (iKCs mono-culture) of the same molecule?
**A.** 50%

**Q.** Which “group by drug-dependent IL-6 production” value (IL-6 [1]) does the source give for C[C@H]1COc2c(N3CCN(C)CC3)c(F)cc3c(=O)c(C(=O)O)cn1c23 [LVX, levofloxacin] here?
**A.** no dose-dependent changes

**Q.** And the IL-6 response (IL-6 [1])?
**A.** did not cause any change

**Q.** And the “change in cell viability” value ([3]; HIVIL, result in words)?
**A.** did not cause any change

**Q.** What about the “viability profiles among iHeps, iKCs and HIVIL” value ([3]; comparison of mono-cultures and co-culture) of the same molecule?
**A.** similar

**Q.** What about the “IL-6 transcription in iHeps” value (iHeps) of the same molecule?
**A.** remained unchanged

**Q.** What about the IL-6 production (IL-6 [9]) of the same molecule?
**A.** did not influence

**Q.** What about the cell viability (iPSC(F4)-derived HIVIL) of the same molecule?
**A.** did not influence

**Q.** And the DILIrank [7]?
**A.** most

**Q.** What about the DILIst [8] of the same molecule?
**A.** 1

**Q.** What does the source list for O=C(O)c1cc(/N=N/c2ccc(S(=O)(=O)Nc3ccccn3)cc2)ccc1O [SSZ, sulfasalazine]?
**A.** group by drug-dependent IL-6 production (IL-6 [1]): no dose-dependent changes; IL-6 response (IL-6 [1]): no change; Cmax [5, 11]: 17600 nM; Reported human responses: NF-κB (NF-κB): NF-κB inhibitor (Wahl et al. 1998); Reported in-vivo (murine) responses: IL-6 (IL-6 [10]): IL-6↓ (Dik et al. 2018)
